Measured values from US10842892B2, “Methods and apparatus for synthesizing imaging agents, and intermediates thereof” (Lantheus Medical Imaging, Inc., priority 2010, dated 2020).
Several values for one entry are separate records, joined by “and”; a condition that tells them apart may be missing. Identical values can stand only once.

Tests used:
viable left ventricle = experiment: left ventricular viability after myocardial infarction, imaging agent 1 versus FDG; format: in vivo, rat
Method: MI was induced in rats by 30 minutes of\ coronary occlusion followed reperfusion. […] Viable left ventricle was quantified in images as the volume with ≥50% of maximum activity.

healthy volunteers = experiment: single-dose dosimetry and biodistribution trial in healthy subjects (MIRD); format: in vivo, human
Method: The following provides results obtained from a study regarding a single-dose dosimetry, biodistribution, and safety trial of imaging agent 1 in healthy subjects. Whole body PET image data for the 12 healthy volunteers were obtained using imaging agent 1 at approximately 10 minutes, 30 minutes, 50 minutes, 2 hours, 2.5 hours, 3.83 hours, and 4.5 hours post injection. Image data were attenuation corrected at the imaging site, and were quantified based on the Medical Internal Radiation Dose (MIRD) 16 methodology by Dosimetry Analysis Laboratory, CDE Dosimetry Services (CDE) to determine kinetic data in all organs showing significant uptake of activity. Dosimetry estimates were created via kinetic modeling of the quantified image data to determine residence times, and the standard MIRD methodology. These estimates were determined using 3 assumptions regarding urinary bladder voiding intervals (2.0, 3.5, and 4.8 hr). Kinetic data, residence times, and the dosimetry estimates are reported for individuals, and as summary statistics.

[1] = syringe adsorption of imaging agent 1; format: physicochemical; settings: three hours, ambient temperature
Method: The two sets of filled syringes were maintained at ambient temperature and humidity for a period of three hours, at which time the contents were injected into a clean 5 cc glass vial; a consistent volume of imaging agent 1 (0.1 mL) remained in the hub of each syringe. The total radioactivity content of both the vial and syringe were measured, decay corrected and the percent retention calculated. The difference in percent retained activity is statistically significant at the 95% confidence level (i.e. Prob>|t| 0.0005).

healthy adults = experiment: clinical safety evaluation after single dose at rest; format: in vivo, human; settings: 13 healthy adults
Method: This was a non-randomized, open-label, single-dose study. A total of 13 healthy adult subjects were enrolled and administered a single dose of imaging agent 1 at a single study center in the United States. Subjects were screened within 14 days prior to enrollment to confirm subject eligibility, and began baseline assessments at the study center the day before study drug administration. Subjects remained at the study center until completion of the Study Day 2 safety assessments (24±8 hours post-dose). A telephone call was made to study subjects 48±8 hours post-dose for adverse event (AE) monitoring. All subjects returned to the study center approximately one week (5-7 days) post-dose for a follow-up safety visit, and were contacted by telephone approximately 14-17 days post-dose for final serious AE monitoring.

[2] = tested on: blood brain barrier (BBB); experiment: brain uptake with and without blood brain barrier disruption; format: in vivo, rat; settings: rat
Method: Male Sprague-Dawley rats were anesthetized with sodium pentobarbital and the left external carotid artery was cannulated close to the internal and external carotid bifurcation. Using saline as control and 25% D-mannitol as hypertonic solution, each were perfused retrogradely in six animals (0.3 mL/kg/sec) for 30 seconds. Two minutes later, ˜1 mCi imaging agent 1 was injected via tail vein and the brain was imaged with a microPET camera for 30 minutes. […] Following completion of imaging, the brain was harvested, photographed and dissected into left and right hemispheres and cerebellum. The tissue content of imaging agent 1 radioactivity was measured by gamma counter and Evans blue levels were determined by fluorescence method for calculation of the % injected dose/gram tissue and μg Evan blue/gram tissue, respectively.

normal subjects = experiment: human safety, dosimetry, biodistribution and rest-stress myocardial imaging in normal subjects; format: in vivo
Method: 25 normal subjects were enrolled in 2 studies: 13 received 222 MBq I.V. At rest (R) only and 12 more subjects received 94 MBq at R and, on a second day, 124 MBq at peak adenosine stress (Adeno, n=6) or at peak treadmill exercise (Ex, n=6). Physical exam, laboratory, vital signs, ECG, and EEG were monitored pre- and post-injection. Myocardial (Myo), liver, blood pool and lung Standardized Uptake Values (SUV) were determined from sequential PET images over time. Mean dose for various organs and mean effective dose (ED in mSv/MBq) were estimated.

patients = experiment: Phase 2 clinical safety of imaging agent 1 injection; format: in vivo, human
[3] = 12 healthy volunteers, voiding interval 3.5 hours
[4] = average, voiding interval 3.5 hours

SMILES: CC(C)(C)n1ncc(OCc2ccc(COCC[18F])cc2)c(Cl)c1=O [imaging agent 1, 2-t-butyl-4-chloro-5-[4-(2-(^18F)fluoroethoxymethyl)-benzyloxy]-2H-pyridazin-3-1]
- left ventricular volume (viable left ventricle; control rats before surgery): 1.17±0.04 cm3
- viable left ventricular tissue volume (viable left ventricle; early stage MI (two days post surgery)): 0.94±0.01 cm3
- viable left ventricular tissue volume (viable left ventricle; late stage MI (four weeks post surgery)): 1.18±0.04 cm3
- EDE (effective dose equivalent), Mean (healthy volunteers; 12 healthy volunteers): 8.0E−02 rem/mCi
- absorbed dose estimate, Mean, Adrenals (healthy volunteers; 12 healthy volunteers): 5.8E−02 rem/mCi
- absorbed dose estimate, Mean, Brain (healthy volunteers; 12 healthy volunteers): 9.4E−02 rem/mCi
- absorbed dose estimate, Mean, Breasts (healthy volunteers; 12 healthy volunteers): 3.2E−02 rem/mCi
- absorbed dose estimate, Mean, Gallbladder Wall (healthy volunteers; 12 healthy volunteers): 6.4E−02 rem/mCi
- absorbed dose estimate, Mean, LLI Wall (healthy volunteers; 12 healthy volunteers): 4.3E−02 rem/mCi
- absorbed dose estimate, Mean, Liver (healthy volunteers; 12 healthy volunteers): 1.5E−01 rem/mCi
- absorbed dose estimate, Mean, Lungs (healthy volunteers; 12 healthy volunteers): 4.2E−02 rem/mCi
- absorbed dose estimate, Mean, Muscle (healthy volunteers; 12 healthy volunteers): 3.8E−02 rem/mCi
- absorbed dose estimate, Mean, Osteogenic Cells (healthy volunteers; 12 healthy volunteers): 6.9E−02 rem/mCi
- absorbed dose estimate, Mean, Ovaries (healthy volunteers; 12 healthy volunteers): 4.5E−02 rem/mCi
- absorbed dose estimate, Mean, Pancreas (healthy volunteers; 12 healthy volunteers): 5.9E−02 rem/mCi
- absorbed dose estimate, Mean, Red Marrow (healthy volunteers; 12 healthy volunteers): 6.0E−02 rem/mCi
- absorbed dose estimate, Mean, Salivary (healthy volunteers; 12 healthy volunteers): 1.3E−01 rem/mCi
- absorbed dose estimate, Mean, Skin (healthy volunteers; 12 healthy volunteers): 2.9E−02 rem/mCi
- absorbed dose estimate, Mean, Small Intestine (healthy volunteers; 12 healthy volunteers): 4.7E−02 rem/mCi
- absorbed dose estimate, Mean, Spleen (healthy volunteers; 12 healthy volunteers): 6.0E−02 rem/mCi
- absorbed dose estimate, Mean, Stomach Wall (healthy volunteers; 12 healthy volunteers): 1.5E−01 rem/mCi
- absorbed dose estimate, Mean, Testes (healthy volunteers; 12 healthy volunteers): 3.4E−02 rem/mCi
- absorbed dose estimate, Mean, Thymus (healthy volunteers; 12 healthy volunteers): 4.1E−02 rem/mCi
- absorbed dose estimate, Mean, Thyroid (healthy volunteers; 12 healthy volunteers): 1.2E−01 rem/mCi
- absorbed dose estimate, Mean, Total Body (healthy volunteers; 12 healthy volunteers): 4.5E−02 rem/mCi
- absorbed dose estimate, Mean, ULI Wall (healthy volunteers; 12 healthy volunteers): 4.7E−02 rem/mCi
- absorbed dose estimate, Mean, Urinary Bladder Wall (healthy volunteers; 12 healthy volunteers): 8.4E−02 rem/mCi
- absorbed dose estimate, Mean, Uterus (healthy volunteers; 12 healthy volunteers): 4.6E−02 rem/mCi
- ED (effective dose), Mean (healthy volunteers; [3]): 0.071 rem/mCi and 7.1E−02 rem/mCi
- absorbed dose estimate, Mean, Heart Wall (healthy volunteers; [3]): 0.18 rem/mCi and 1.8E−01 rem/mCi
- absorbed dose estimate, Mean, Kidneys (healthy volunteers; [3]): 0.24 rem/mCi and 2.4E−01 rem/mCi
- peak uptake, kidneys (healthy volunteers; average, 12 healthy volunteers): approximately 9.4 % of the injected activity
- peak uptake, liver (healthy volunteers; average, 12 healthy volunteers): approximately 19.1 % of the injected activity
- absorbed dose, heart wall (healthy volunteers; [4]): 0.048 mSv/MBq
- absorbed dose, kidneys (healthy volunteers; [4]): 0.066 mSv/MBq
- mean ED (effective dose) (healthy volunteers; voiding interval 3.5 hours): 0.019 mSv/MBq
- Retained Activity in syringe ([1]; B&D (Becton & Dickinson) three-component syringe): 35.2% and 38.9% and 32.4%
- Retained Activity in syringe ([1]; HSW (Henke Sass Wolf) two-component syringe): 11.3% and 7.0% and 5.1%
- changes from baseline in vital signs, laboratory values, ECGs and EEGs (healthy adults): not clinically significant
- potential cardiotoxicity (coagulation studies, Troponin-T levels) (healthy adults): not exhibited
- tolerability (healthy adults): well-tolerated and no clinically significant safety concerns were raised
- BBB permeability [2]: high BBB permeability
- adverse events (normal subjects; 25 normal subjects): no adverse events related to the tracer
- Adeno Myo SUV (normal subjects; 10 mins): 10.5 ± 1.5
- Adeno Myo/liver (normal subjects; 10 mins): 1.9 ± 0.6
- Exercise Myo SUV (normal subjects; 10 mins): 6.2 ± 2.1
- Exercise Myo/liver (normal subjects; 10 mins): 28.0 ± 33.6
- Rest Myo SUV (normal subjects; 10 mins): 3.9 ± 0.9
- Rest Myo/liver (normal subjects; 10 mins): 1.0 ± 0.3
- Adeno Myo SUV (normal subjects; 30 mins): 10.8 ± 2.1
- Adeno Myo/liver (normal subjects; 30 mins): 2.0 ± 0.5
- Exercise Myo SUV (normal subjects; 30 mins): 5.5 ± 1.0
- Exercise Myo/liver (normal subjects; 30 mins): 5.6 ± 1.0
- Rest Myo SUV (normal subjects; 30 mins): 4.2 ± 1.1
- Rest Myo/liver (normal subjects; 30 mins): 0.9 ± 0.2
- Adeno Myo SUV (normal subjects; 60 mins): 10.3 ± 2.1
- Adeno Myo/liver (normal subjects; 60 mins): 2.2 ± 0.5
- Exercise Myo SUV (normal subjects; 60 mins): 5.1 ± 0.9
- Exercise Myo/liver (normal subjects; 60 mins): 5.6 ± 1.3
- Rest Myo SUV (normal subjects; 60 mins): 4.5 ± 1.2
- Rest Myo/liver (normal subjects; 60 mins): 1.1 ± 0.2
- Adeno Myo SUV (normal subjects; 90 mins): 9.6 ± 2.1
- Adeno Myo/liver (normal subjects; 90 mins): 2.6 ± 0.5
- Exercise Myo SUV (normal subjects; 90 mins): 4.9 ± 0.9
- Exercise Myo/liver (normal subjects; 90 mins): 5.8 ± 1.5
- Rest Myo SUV (normal subjects; 90 mins): 4.3 ± 1.3
- Rest Myo/liver (normal subjects; 90 mins): 1.4 ± 0.2
- Adeno Myo SUV (normal subjects; 149 mins): 8.4 ± 2.1
- Adeno Myo/liver (normal subjects; 149 mins): 3.8 ± 1.0
- Exercise Myo SUV (normal subjects; 149 mins): 4.5 ± 0.8
- Exercise Myo/liver (normal subjects; 149 mins): 5.5 ± 1.5
- Rest Myo SUV (normal subjects; 149 mins): 4.1 ± 1.4
- Rest Myo/liver (normal subjects; 149 mins): 2.1 ± 0.3
- mean effective dose (ED) (normal subjects; at rest (R)): 0.019 mSv/MBq
- mean effective dose (ED) (normal subjects; with adenosine stress (Adeno)): 0.019 mSv/MBq
- mean effective dose (ED) (normal subjects; with exercise (Ex)): 0.015 mSv/MBq
- AEs judged to be related to the study drug (patients; 143 patients): 7
- patients with AEs judged to be related to the study drug (patients; 143 patients): 2
- seriousness of related AEs (patients; 143 patients): none were serious
- treatment emergent adverse events (AEs) reported (patients; 143 patients): 100
- ECG at rest: effect on heart rate, PR interval, QRS duration, QTcF duration (patients; human, in vivo): no evidence of any clinically relevant effect
- patients reporting treatment emergent adverse events (patients; of 143 patients): 61
